Reference: the supplement of paper PMC4862054

Experiments:
Details in all cases: incubation time: 72 h
[1] = system: BT-474; experiment: normalised response (% of control), CellTox Green; higher = less cell death (100 = DMSO, 0 = benzethonium chloride kill control)
Method in brief: (§1)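 Normalised signals at single concentrations make up the values. They come from breast cancer cell lines seeded (20 µl suspension) into 384-well plates with compound at 5 concentrations in 10-fold steps over a compound-specific 10,000-fold range, incubated 72 h, and read for CellTox Green fluorescence then CellTiter-Glo luminescence. Each plate was normalised to 0.1 % DMSO (100) and a positive kill control (0).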

[2] = system: BT-549; experiment: as above
Method in brief: as §1

[3] = system: CAL-120; experiment: as above
Method in brief: as §1

[4] = system: CAL-148; experiment: as above
Method in brief: as §1

[5] = system: CAL-51; experiment: as above
Method in brief: as §1

[6] = system: CAL-85-1; experiment: as above
Method in brief: as §1

[7] = system: DU-4475; experiment: as above
Method in brief: as §1

[8] = system: HCC1143; experiment: as above
Method in brief: as §1

[9] = system: HCC1599; experiment: as above
Method in brief: as §1

[10] = system: HCC1937; experiment: as above
Method in brief: as §1

[11] = system: HDQ-P1; experiment: as above
Method in brief: as §1

[12] = system: Hs578T; experiment: as above
Method in brief: as §1

[13] = system: MCF-10A; experiment: as above
Method in brief: as §1

[14] = system: MDA-MB-231; experiment: as above
Method in brief: as §1

[15] = system: MDA-MB-436; experiment: as above
Method in brief: as §1

[16] = system: MDA-MB-453; experiment: as above
Method in brief: as §1

[17] = system: MDA-MB-468; experiment: as above
Method in brief: as §1

[18] = system: MFM-223; experiment: as above
Method in brief: as §1

[19] = system: BT-474; experiment: normalised response (% of control), CellTiter-Glo; higher = more viable cells (100 = DMSO, 0 = benzethonium chloride kill control)
Description: (§2)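 DSRT, 72 h incubation, CellTox Green / CellTiter-Glo readout. Signal is normalised to DMSO and benzethonium chloride controls. Value is the normalised response at the highest dose.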

[20] = system: BT-549; experiment: as above
Description: as §2

[21] = system: CAL-120; experiment: as above
Description: as §2

[22] = system: CAL-148; experiment: as above
Description: as §2

[23] = system: CAL-51; experiment: as above
Description: as §2

[24] = system: CAL-85-1; experiment: as above
Description: as §2

[25] = system: DU-4475; experiment: as above
Description: as §2

[26] = system: HCC1143; experiment: as above
Description: as §2

[27] = system: HCC1599; experiment: as above
Description: as §2

[28] = system: HCC1937; experiment: as above
Description: as §2

[29] = system: HDQ-P1; experiment: as above
Description: as §2

[30] = system: Hs578T; experiment: as above
Description: as §2

[31] = system: MCF-10A; experiment: as above
Description: as §2

[32] = system: MDA-MB-231; experiment: as above
Description: as §2

[33] = system: MDA-MB-436; experiment: as above
Description: as §2

[34] = system: MDA-MB-453; experiment: as above
Description: as §2

[35] = system: MDA-MB-468; experiment: as above
Description: as §2

[36] = system: MFM-223; experiment: as above
Description: as §2

[37] = system: SK-BR-3; experiment: as above
Description: as §2

SMILES	normalised response [1]	normalised response [2]	normalised response [3]	normalised response [4]	normalised response [5]	normalised response [6]	normalised response [7]	normalised response [8]	normalised response [9]	normalised response [10]	normalised response [11]	normalised response [12]	normalised response [13]	normalised response [14]	normalised response [15]	normalised response [16]	normalised response [17]	normalised response [18]	normalised response [19]	normalised response [20]	normalised response [21]	normalised response [22]	normalised response [23]	normalised response [24]	normalised response [25]	normalised response [26]	normalised response [27]	normalised response [28]	normalised response [29]	normalised response [30]	normalised response [31]	normalised response [32]	normalised response [33]	normalised response [34]	normalised response [35]	normalised response [36]	normalised response [37]
Nc1ncnc2c1c(COc1cccc(Cl)c1)nn2C1CCOCC1 (10000 nM)	106%	110%	109%	96%	109%	91.3%	103%	104%	106%	103%	109%	110%	86.3%	106%	79.2%	104%	112%	98.8%	86.8%	88.1%	107%	113%	101%	90.2%	101%	98.2%	98.6%	95.3%	92.2%	100%	89.3%	89.6%	89.3%	88.3%	92.3%	96.8%	102%
COc1ccc(-c2ccc3c(N4CCOC[C@@H]4C)nc(N4CCOC[C@@H]4C)nc3n2)cc1CO [AZD8055] (10000 nM)	48%	111%	102%	56.6%	76.6%	88.1%	82.6%	-36.9%	86.4%	97.3%	99.7%	94.8%	76.3%	97.3%	68.7%	92.3%	27.8%	83.7%	42.5%	19.9%	18.8%	14.6%	15.9%	27.6%	15.3%	25.3%	77.3%	38.3%	29%	22.4%	21.4%	33.5%	46.4%	27.2%	21%	26.4%	18.2%
C[C@]12CC[C@H](O)CC1=CC[C@@H]1[C@@H]2CC[C@]2(C)C(c3cccnc3)=CC[C@@H]12 [Abiraterone] (5000 nM)	99.7%	128%	98%	87.5%	96.6%	77.8%	111%	107%	113%	120%	62.7%	116%	76.5%	122%	111%	110%	151%	101%	97%	96.4%	103%	104%	98.4%	112%	99.6%	97.1%	107%	97.7%	104%	102%	109%	101%	100%	112%	99.3%	103%	104%
CN(C)CCN1C(=O)c2cccc3cc(N)cc(c23)C1=O [Amonafide] (10000 nM)	97.8%	122%	101%	32.8%	23.1%	63.4%	83.8%	93.5%	98%	120%	87%	114%	77%	111%	63.8%	112%	125%	100%	43.9%	47%	52.3%	25.4%	17.7%	47.6%	14.6%	52.3%	57.2%	55.7%	53.1%	61.7%	45%	39.2%	38.8%	77.8%	43.5%	69.7%	31.9%
CC(C)(C#N)c1cc(Cn2cncn2)cc(C(C)(C)C#N)c1 [Anastrozole] (10000 nM)	93%	98.8%	99.1%	105%	100%	92.9%	95.3%		106%	69.8%	105%	77.6%	105%		107%	88%	116%	89.5%	97.5%	102%	98.3%	104%	98.6%	104%	103%	102%	99.8%	101%	100%	100%	101%	99.9%	96%	108%	105%	103%	108%
CC(C)c1c(C(=O)Nc2ccccc2)c(-c2ccccc2)c(-c2ccc(F)cc2)n1CC[C@@H](O)C[C@@H](O)CC(=O)O [Atorvastatin] (10000 nM)	104%	102%	45.3%	99.2%	-23.5%	86.1%	98%	101%	103%	92.4%	85.6%	7.6%	1.75%	-37.9%	83%	88%	121%	101%	11.1%	70%	47.4%	94.8%	21.2%	52.7%	87.4%	55.3%	83.4%	68.3%	44%	37.8%	4.77%	3.78%	71.4%	89.7%	19.1%	76.1%	79.8%
O=C(O)CCCc1ccc(N(CCCl)CCCl)cc1 [Chlorambucil] (10000 nM)	99.8%	78.8%	102%	95.3%	81.7%	82.5%	98.1%	102%	105%	105%	104%	124%	83%	104%	66.2%	102%	141%	99.2%	96%	91.9%	100%	103%	117%	96.2%	96.9%	96.9%	89.3%	94.9%	101%	103%	97.3%	97.6%	81.3%	123%	94.1%	108%	101%
Cn1c(=O)n(-c2ccc(C(C)(C)C#N)cc2)c2c3cc(-c4cnc5ccccc5c4)ccc3ncc21 [Dactolisib] (1000 nM)	101%	112%	104%	-65%	81.3%	64.6%	102%	130%	107%	45.6%	115%	101%	87.3%	126%	112%	104%	170%	28.8%	61.8%	25.9%	26.2%	33.1%	23.5%	43%	30.4%	37.5%	82%	58%	52.4%	33.9%	52.3%	51.3%	57%	37.9%	31.5%	42.3%	27.2%
Nc1nc(OCc2cc(Br)cs2)c2[nH]cnc2n1 [Lomeguatrib] (10000 nM)	95.9%	96.6%	104%	69.2%	89.2%	114%	97.9%	98%	99.2%		104%	108%	75.2%	112%	94.1%	92.8%	161%	98.5%	98.9%	93.5%	101%	101%	67.2%	97%	102%	94.5%	106%	103%	96.5%	98.7%	97.4%	98.5%	90.6%	91.3%	87.1%	91.8%	93.9%
